Measured values as given in PubChem BioAssay (NCI).
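Five concentrations, 48 hours, 96-well plates. At the TGI there is no net growth.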

How the values were obtained:
Experiment in all cases: NCI-60 cell line screen, 48 h
OVCAR-5 ovarian = tested on: OVCAR-5 ovarian
RPMI-8226 leukemia = tested on: RPMI-8226 leukemia
MDA-MB-435 = tested on: MDA-MB-435
SW-620 colon = tested on: SW-620 colon
HOP-92 NSCLC = tested on: HOP-92 NSCLC
SK-OV-3 ovarian = tested on: SK-OV-3 ovarian
SF-268 CNS = tested on: SF-268 CNS
A549 NSCLC = tested on: A549 NSCLC
HOP-62 NSCLC = tested on: HOP-62 NSCLC
SR leukemia = tested on: SR leukemia

Compound | TGI (OVCAR-5 ovarian) [µM] | TGI (RPMI-8226 leukemia) [µM] | TGI (MDA-MB-435) [µM] | TGI (SW-620 colon) [µM] | TGI (HOP-92 NSCLC) [µM] | TGI (SK-OV-3 ovarian) [µM] | TGI (SF-268 CNS) [µM] | TGI (A549 NSCLC) [µM] | TGI (HOP-62 NSCLC) [µM] | TGI (SR leukemia) [µM]
CC(C)CCC[C@@H](C)[C@H]1CC[C@H]2C3=C[C@H](OS(=O)(=O)O)[C@@]4(O)C[C@@H](O)CC[C@]4(C)[C@@]3(O)CC[C@]12C | > 100 | > 100 | > 100 | > 100 | > 100 | > 100 | > 100 | > 100 | > 100 | > 100
C/C(=N\NC(=S)Nc1ccc([N+](=O)[O-])cc1)c1nc2ncccc2[nH]1 | 4.14 | 9.3 | 4.42 | > 100 | 18 | 14.7 | > 100 | 19.1 | 4.33 | > 100
O=C(/C=C(\Nc1ccccc1O)c1ccc(Br)cc1)C(Cl)(Cl)Cl | 24.5 | 7.29 | 21.8 | 16.5 | 15.4 | 16 | 25.8 | 12.4 | 31.6 | 36.7
Cc1ccc(S(=O)(=O)N2CC(CCN)c3ccccc32)cc1 (stereo not given) | 24 | > 63.6 | 27.1 | 18 | 52.7 | > 44.7 | 23.8 | 32.5 | > 29.1 | > 100
CC(=O)N(CC(=O)C(=O)NNc1ccoc1)c1ccc(Cl)cc1 | > 100 | > 100 | > 100 | > 100 | > 100 | > 100 | > 100 | > 100 | > 100 | > 100
C=C1C2CCC3(CCC4C5(C)CCCC4(C=[N+](CCO)C5)C3C2)C1O (stereo not given) | > 100 | > 100 | > 100 | > 100 | > 100 | > 100 | > 100 | > 100 | > 100 | > 100
COC1=C2CC(C)CC(OC)C(OC(=O)CCCN)C(C)/C=C(\C)C(OC(N)=O)C(OC)/C=C\C=C(/C)C(=O)NC(=CC1=O)C2=O (stereo not given) | 23.8 | 32.5 | 12.4 | 17.7 | 14.6 | 35.1 | 24.6 | 55.1 | 32 | 21.5
O=C(NCCCCCCCN1CCCCCCC1)C(C1CCCCC1)C1CCCCC1 | 23.2 | 6.71 | 22.2 | 56.1 | 23.7 | 23.6 | 32.5 | 25.7 | 14.4 | 6.84
Nc1ccc(-c2nc3ccc(F)cc3s2)cc1I | > 100 | > 100 | > 100 | > 100 | > 100 | > 100 | > 100 | > 100 | > 100 | > 100
O=C1CSC(c2ccccc2O)N1c1ccc(Oc2ccc(Cl)cc2)c(Cl)c1 (stereo not given) | 81.8 | 89.1 | 69 | > 100 | 39.1 | 47.9 | 31.4 | 49.3 | 42.3 | 40.2
O=c1[nH]c2nc[nH]c2c(=O)n1C1CCCCC1 | > 100 | > 100 | > 100 | > 100 | > 100 | > 100 | > 100 | > 100 | > 100 | > 100
CSc1nc2c3ccccc3ccn2c1C(=O)N/N=C/c1ccccc1 | > 100 | > 100 | > 100 | > 100 | > 33.8 | 43.7 | > 72.1 | > 100 | 27.2 | > 100
